# Data published in patent US20250296953A1, “3,4-THIAZOLO-STEROIDS AND METHODS OF MAKING AND USING THE SAME” (Arkansas State University - Jonesboro, priority 2018, published 2025).
# Where two headings read alike, the source gives them in different places.
# Legend:
# [1] = tested on: 60 different human tumor cell lines; test: NCI Development Therapeutics Program 60 cell line screen, one dose; format: cell-based
# SF-539 = test: NCI 60 one dose screen; format: cell-based, human; details: one dose; CNS Cancer; SF-539
# SK-MEL-25 = test: Melanoma cytotoxicity assay (resazurin); format: cell-based; details: SK-MEL-25 melanoma cells, 24 hours with compound, resazurin; concentration not given
# Outline: (§1)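 Viability read by resazurin fluorescence (ex 544, em 590 nm) after 6 h, following 24 h compound exposure of cells plated 24 h earlier (~4000/well). Triplicate means, minus medium blank, divided by DMSO control; IC50 derived from sigmoidal dose-response curves.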
# SK-MEL-28 = test: Melanoma cytotoxicity assay (resazurin); format: cell-based; details: SK-MEL-28 melanoma cells, 24 hours with compound, resazurin; concentration not given
# Outline: as §1
# SR = test: NCI 60 five dose screen; details: for CC50: read-out: LC50
# [2] = Non-small Cell Lung Cancer, A549/ATCC
# [3] = Non-small Cell Lung Cancer, EKVX
# [4] = Non-small Cell Lung Cancer, HOP-62
# [5] = Non-small Cell Lung Cancer, HOP-92
# [6] = Non-small Cell Lung Cancer, NCI-H23
# [7] = Non-small Cell Lung Cancer, NCI-H226
# [8] = Non-small Cell Lung Cancer, NCI-H322M
# [9] = Non-small Cell Lung Cancer, NCI-H460
molecule,measurement,setting,value
"C[C@]12CCc3sc(Nc4cccc(O)c4)nc3C1=CC[C@@H]1[C@@H]2CC[C@]2(C)C(=O)CC[C@@H]12 [IIa.17, (1S,2R,13R,14S,18S)-7-(3-hydroxyanilino)-2,18-dimethyl-6-thia-8-azapentacyclo[11.7.0.02,10.05,9.014,18]icosa-5(9),7,10-trien-17-one]",Growth Percent,"[1]; Breast Cancer, BT-549",17.42%
same,Growth Percent,"[1]; Breast Cancer, HS 578T",7.41%
same,Growth Percent,"[1]; Breast Cancer, MCF7",−25.89%
same,Growth Percent,"[1]; Breast Cancer, MDA-MB-231/ATCC",39.51%
same,Growth Percent,"[1]; Breast Cancer, MDA-MB-468",32.20%
same,Growth Percent,"[1]; Breast Cancer, T-47D",−8.55%
same,Growth Percent,"[1]; CNS Cancer, SF-268",43.09%
same,Growth Percent,"[1]; CNS Cancer, SNB-19",57.90%
same,Growth Percent,"[1]; CNS Cancer, SNB-75",37.28%
same,Growth Percent,"[1]; CNS Cancer, U251",18.85%
same,Growth Percent,"[1]; Colon Cancer, COLO 205",34.38%
same,Growth Percent,"[1]; Colon Cancer, HCC-2998",81.46%
same,Growth Percent,"[1]; Colon Cancer, HCT-116",−23.66%
same,Growth Percent,"[1]; Colon Cancer, HT29",−29.01%
same,Growth Percent,"[1]; Colon Cancer, KM12",34.70%
same,Growth Percent,"[1]; Colon Cancer, SW-620",−4.13%
same,Growth Percent,"[1]; Leukemia, CCRF-CEM",12.99%
same,Growth Percent,"[1]; Leukemia, HL-60(TB)",45.99%
same,Growth Percent,"[1]; Leukemia, K-562",4.81%
same,Growth Percent,"[1]; Leukemia, MOLT-4",5.52%
same,Growth Percent,"[1]; Leukemia, RPMI-8226",−13.60%
same,Growth Percent,"[1]; Leukemia, SR",3.61%
same,Growth Percent,"[1]; Melanoma, LOX IMVI",−52.69%
same,Growth Percent,"[1]; Melanoma, M14",54.77%
same,Growth Percent,"[1]; Melanoma, MALME-3M",35.26%
same,Growth Percent,"[1]; Melanoma, MDA-MB-435",42.59%
same,Growth Percent,"[1]; Melanoma, SK-MEL-2",29.07%
same,Growth Percent,"[1]; Melanoma, SK-MEL-5",64.76%
same,Growth Percent,"[1]; Melanoma, SK-MEL-28",41.25%
same,Growth Percent,"[1]; Melanoma, UACC-62",28.83%
same,Growth Percent,"[1]; Melanoma, UACC-257",79.56%
same,Growth Percent,[1]; [2],55.43%
same,Growth Percent,[1]; [3],71.36%
same,Growth Percent,[1]; [4],27.50%
same,Growth Percent,[1]; [5],64.31%
same,Growth Percent,[1]; [6],63.65%
same,Growth Percent,[1]; [7],94.46%
same,Growth Percent,[1]; [8],72.84%
same,Growth Percent,[1]; [9],43.90%
same,Growth Percent,"[1]; Ovarian Cancer, IGROV1",−12.12%
same,Growth Percent,"[1]; Ovarian Cancer, NCI/ADR-RES",78.93%
same,Growth Percent,"[1]; Ovarian Cancer, OVCAR-3",−3.79%
same,Growth Percent,"[1]; Ovarian Cancer, OVCAR-4",52.06%
same,Growth Percent,"[1]; Ovarian Cancer, OVCAR-5",109.51%
same,Growth Percent,"[1]; Ovarian Cancer, OVCAR-8",17.89%
same,Growth Percent,"[1]; Ovarian Cancer, SK-OV-3",37.28%
same,Growth Percent,"[1]; Prostate Cancer, DU-145",12.72%
same,Growth Percent,"[1]; Prostate Cancer, PC-3",28.08%
same,Growth Percent,"[1]; Renal Cancer, 786-0",−0.52%
same,Growth Percent,"[1]; Renal Cancer, ACHN",5.12%
same,Growth Percent,"[1]; Renal Cancer, CAKI-1",37.11%
same,Growth Percent,"[1]; Renal Cancer, RXF 393",−6.67%
same,Growth Percent,"[1]; Renal Cancer, SN12C",46.55%
same,Growth Percent,"[1]; Renal Cancer, TK-10",10.18%
same,Growth Percent,"[1]; Renal Cancer, UO-31",22.19%
same,Growth Percent,SF-539,−41.82%
same,SK-MEL-25 (% inhibition),SK-MEL-25,79%
same,SK-MEL-28 (% inhibition),SK-MEL-28,87%
same,GI50,"SR; Homo sapiens, SR",2580 nM
same,CC50,"SR; Homo sapiens, SR",> 100000 nM
same,TGI,"SR; SR (Leukemia), five dose",>1.00E−4
"(1S,2R,13R,14S,18S)-7-(2,4-dimethylanilino)-2,18-dimethyl-6-thia-8-azapentacyclo[11.7.0.02,10.05,9.014,18]icosa-5(9),7,10-trien-17-one [IIa.14]",Growth Percent,"[1]; Breast Cancer, BT-549",2.85%
same,Growth Percent,"[1]; Breast Cancer, HS 578T",45.27%
same,Growth Percent,"[1]; Breast Cancer, MCF7",18.18%
same,Growth Percent,"[1]; Breast Cancer, MDA-MB-231/ATCC",26.55%
same,Growth Percent,"[1]; Breast Cancer, MDA-MB-468",16.97%
same,Growth Percent,"[1]; Breast Cancer, T-47D",41.81%
same,Growth Percent,"[1]; CNS Cancer, SF-268",46.93%
same,Growth Percent,"[1]; CNS Cancer, SNB-19",44.03%
same,Growth Percent,"[1]; CNS Cancer, SNB-75",35.14%
same,Growth Percent,"[1]; CNS Cancer, U251",18.36%
same,Growth Percent,"[1]; Colon Cancer, COLO 205",62.35%
same,Growth Percent,"[1]; Colon Cancer, HCC-2998",84.48%
same,Growth Percent,"[1]; Colon Cancer, HCT-116",−27.32%
same,Growth Percent,"[1]; Colon Cancer, HT29",3.81%
same,Growth Percent,"[1]; Colon Cancer, KM12",44.55%
same,Growth Percent,"[1]; Colon Cancer, SW-620",4.35%
same,Growth Percent,"[1]; Leukemia, CCRF-CEM",7.99%
same,Growth Percent,"[1]; Leukemia, HL-60(TB)",9.29%
same,Growth Percent,"[1]; Leukemia, K-562",5.33%
same,Growth Percent,"[1]; Leukemia, MOLT-4",−0.31%
same,Growth Percent,"[1]; Leukemia, RPMI-8226",−3.52%
same,Growth Percent,"[1]; Leukemia, SR",−0.63%
same,Growth Percent,"[1]; Melanoma, LOX IMVI",−16.56%
same,Growth Percent,"[1]; Melanoma, M14",37.85%
same,Growth Percent,"[1]; Melanoma, MALME-3M",27.34%
same,Growth Percent,"[1]; Melanoma, MDA-MB-435",16.89%
same,Growth Percent,"[1]; Melanoma, SK-MEL-2",72.63%
same,Growth Percent,"[1]; Melanoma, SK-MEL-5",51.38%
same,Growth Percent,"[1]; Melanoma, SK-MEL-28",50.77%
same,Growth Percent,"[1]; Melanoma, UACC-62",39.03%
same,Growth Percent,"[1]; Melanoma, UACC-257",65.55%
same,Growth Percent,[1]; [2],61.13%
same,Growth Percent,[1]; [3],51.95%
same,Growth Percent,[1]; [4],45.74%
same,Growth Percent,[1]; [5],65.93%
same,Growth Percent,[1]; [6],54.16%
same,Growth Percent,[1]; [7],72.85%
same,Growth Percent,[1]; [8],79.50%
same,Growth Percent,[1]; [9],45.78%
same,Growth Percent,"[1]; Ovarian Cancer, IGROV1",17.68%
same,Growth Percent,"[1]; Ovarian Cancer, NCI/ADR-RES",53.35%
same,Growth Percent,"[1]; Ovarian Cancer, OVCAR-3",−6.33%
same,Growth Percent,"[1]; Ovarian Cancer, OVCAR-4",59.62%
same,Growth Percent,"[1]; Ovarian Cancer, OVCAR-5",59.08%
same,Growth Percent,"[1]; Ovarian Cancer, OVCAR-8",31.69%
same,Growth Percent,"[1]; Ovarian Cancer, SK-OV-3",78.49%
same,Growth Percent,"[1]; Prostate Cancer, DU-145",25.93%
same,Growth Percent,"[1]; Prostate Cancer, PC-3",15.83%
same,Growth Percent,"[1]; Renal Cancer, 786-0",5.54%
same,Growth Percent,"[1]; Renal Cancer, A498",66.68%
same,Growth Percent,"[1]; Renal Cancer, ACHN",32.28%
same,Growth Percent,"[1]; Renal Cancer, CAKI-1",49.83%
same,Growth Percent,"[1]; Renal Cancer, RXF 393",28.78%
same,Growth Percent,"[1]; Renal Cancer, SN12C",26.21%
same,Growth Percent,"[1]; Renal Cancer, TK-10",63.32%
same,Growth Percent,"[1]; Renal Cancer, UO-31",34.25%
same,Growth Percent,SF-539,8.46%
same,SK-MEL-25 (% inhibition),SK-MEL-25,15%
same,GI50,"SR; SR (Leukemia), five dose",2320 nM
same,TGI,"SR; SR (Leukemia), five dose",>1.00E−4
same,50% growth inhibition (GI50),SR; leukemia cell line SR,submicromolar
same,CC50,"SR; SR (Leukemia), five dose",> 100000 nM
